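Each compound was tested at five concentrations against cells in 96-well plates for 48 hours. GI50 is the concentration that inhibits growth by half.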 Active and inactive are the calls of the source. Rule as the data show it: active = GI50 up to about 1.1 µM and inactive = higher.
Assays:
Assay in all cases: growth of human tumour cells (NCI), 48 h
[1] = system: UACC-257
[2] = system: OVCAR-3
[3] = system: NCI-H460
[4] = system: HCT-15
[5] = system: MDA-MB-435
[6] = system: HT-29
[7] = system: A498
[8] = system: SK-OV-3
[9] = system: NCI/ADR-RES
[10] = system: RPMI-8226
[11] = system: CCRF-CEM
[12] = system: DU-145
[13] = system: A549
[14] = system: SF-539
[15] = system: Hs-578T
[16] = system: HCT-116
[17] = system: SK-MEL-2
[18] = system: SK-MEL-5
[19] = system: EKVX

Compound | GI50 [1] | GI50 [2] | GI50 [3] | GI50 [4] | GI50 [5] | GI50 [6] | GI50 [7] | GI50 [8] | GI50 [9] | GI50 [10] | GI50 [11] | GI50 [12] | GI50 [13] | GI50 [14] | GI50 [15] | GI50 [16] | GI50 [17] | GI50 [18] | GI50 [19]
O=C1CC(c2cccc([N+](=O)[O-])c2)C2(C(=O)NC(=O)NC2=O)C(c2cccc([N+](=O)[O-])c2)C1 (stereo not drawn) | > 100 µM (inactive) | 13.9 µM (inactive) | > 100 µM (inactive) | 70.5 µM | > 100 µM (inactive) | 75.9 µM (inactive) | > 100 µM (inactive) | > 100 µM (inactive) | > 100 µM (inactive) | 31.5 µM (inactive) | 32.9 µM (inactive) | 64.4 µM (inactive) | > 100 µM (inactive) | > 100 µM (inactive) | > 100 µM (inactive) | 20.1 µM (inactive) | > 100 µM (inactive) | > 100 µM (inactive) | –
O=C1C(Cl)=C(N2CCN(c3ncccn3)CC2)C(=O)c2c(O)ccc(O)c21 | 1.84 µM (inactive) | 1.72 µM (inactive) | 15.3 µM (inactive) | 1.59 µM | 1.67 µM (inactive) | 2.98 µM (inactive) | 2.9 µM (inactive) | 24 µM (inactive) | 3.01 µM (inactive) | 2.49 µM (inactive) | 0.211 µM (active) | 4.34 µM (inactive) | 7.16 µM (inactive) | 1.97 µM (inactive) | 2.9 µM (inactive) | 1.69 µM (inactive) | 1.03 µM (active) | 2.17 µM (inactive) | 11.4 µM (inactive)
Cc1nc2cc(Cl)c(N)cc2[nH]1 | > 100 µM (inactive) | > 100 µM (inactive) | > 100 µM (inactive) | > 100 µM | > 100 µM (inactive) | > 100 µM (inactive) | > 100 µM (inactive) | > 100 µM (inactive) | > 100 µM (inactive) | > 100 µM (inactive) | > 100 µM (inactive) | > 100 µM (inactive) | > 100 µM (inactive) | > 10 µM (inactive) | > 100 µM (inactive) | > 100 µM (inactive) | > 100 µM (inactive) | > 100 µM (inactive) | > 100 µM (inactive)
O=C(O)CSc1ccn(Cc2ccccc2)c1 | > 100 µM (inactive) | > 100 µM (inactive) | > 100 µM (inactive) | > 100 µM | > 100 µM (inactive) | > 100 µM (inactive) | > 100 µM (inactive) | > 100 µM (inactive) | > 100 µM (inactive) | > 100 µM (inactive) | > 100 µM (inactive) | > 100 µM (inactive) | > 100 µM (inactive) | > 100 µM (inactive) | > 100 µM (inactive) | > 100 µM (inactive) | > 100 µM (inactive) | > 100 µM (inactive) | > 100 µM (inactive)
COC(=O)CN1c2nc(C#N)c(C#N)nc2N(CC(=O)OC)c2nc(C#N)c(C#N)nc21 | 2.72 µM (inactive) | 2.92 µM (inactive) | 22 µM (inactive) | 3.05 µM | 2.64 µM (inactive) | 3.02 µM (inactive) | 15.3 µM (inactive) | 15.3 µM (inactive) | 18.7 µM (inactive) | 1.87 µM (inactive) | 1.01 µM (active) | 1.43 µM (inactive) | 12 µM (inactive) | 7.11 µM (inactive) | 19.6 µM (inactive) | 1.58 µM (inactive) | 8.81 µM (inactive) | 5.4 µM (inactive) | 4.47 µM (inactive)
N=C1N=C(N)c2cc3c(cc21)SCCSCCCSCCS3 | 20.2 µM (inactive) | 11.8 µM (inactive) | 13.3 µM (inactive) | 14.3 µM | 11.1 µM (inactive) | 11.2 µM (inactive) | > 44.7 µM (inactive) | 18.5 µM (inactive) | 58.1 µM (inactive) | > 10 µM (inactive) | 3.95 µM (inactive) | 31.6 µM (inactive) | 18.7 µM (inactive) | 20.1 µM (inactive) | 10.1 µM (inactive) | 9.59 µM (inactive) | 16.1 µM (inactive) | 16 µM (inactive) | 19.9 µM (inactive)
COc1nc(N)nc2c1n(C)c[n+]2C | > 100 µM (inactive) | > 100 µM (inactive) | > 100 µM (inactive) | > 100 µM | > 100 µM (inactive) | > 100 µM (inactive) | > 100 µM (inactive) | > 100 µM (inactive) | > 100 µM (inactive) | > 100 µM (inactive) | > 100 µM (inactive) | > 100 µM (inactive) | > 100 µM (inactive) | > 100 µM (inactive) | > 100 µM (inactive) | > 100 µM (inactive) | > 100 µM (inactive) | > 100 µM (inactive) | > 100 µM (inactive)
N=C(N)N/N=C/c1c(Cl)nc2n1CCS2 | > 100 µM (inactive) | 44.4 µM (inactive) | 48.4 µM (inactive) | > 100 µM | 59.4 µM (inactive) | 38 µM (inactive) | 90.8 µM (inactive) | 57.3 µM (inactive) | > 100 µM (inactive) | > 100 µM (inactive) | 71.9 µM (inactive) | 90.2 µM (inactive) | 62.5 µM (inactive) | 47.5 µM (inactive) | 64.1 µM (inactive) | 16.6 µM (inactive) | > 100 µM (inactive) | > 10 µM (inactive) | > 100 µM (inactive)
NC(=O)C1CCCN1C(=O)N(CCCl)N=O (stereo not drawn) | > 100 µM (inactive) | > 100 µM (inactive) | > 100 µM (inactive) | > 100 µM | > 100 µM (inactive) | > 100 µM (inactive) | > 100 µM (inactive) | > 100 µM (inactive) | > 100 µM (inactive) | > 100 µM (inactive) | > 100 µM (inactive) | > 100 µM (inactive) | > 100 µM (inactive) | > 100 µM (inactive) | > 100 µM (inactive) | > 100 µM (inactive) | > 100 µM (inactive) | > 100 µM (inactive) | > 100 µM (inactive)
O=c1oc2ccccc2cc1-c1nc2ccc([N+](=O)[O-])cc2o1 | > 100 µM (inactive) | > 100 µM (inactive) | > 100 µM (inactive) | > 100 µM | > 100 µM (inactive) | 67.6 µM (inactive) | > 100 µM (inactive) | > 100 µM (inactive) | > 100 µM (inactive) | > 100 µM (inactive) | > 100 µM (inactive) | > 100 µM (inactive) | > 100 µM (inactive) | 65.2 µM (inactive) | 84.9 µM (inactive) | > 100 µM (inactive) | > 100 µM (inactive) | > 100 µM (inactive) | > 100 µM (inactive)
C=C1C(=O)CC2C(=O)C(C)(O)CC/C=C(\C)C(=O)CC12 (stereo not drawn) | 20 µM (inactive) | 17 µM (inactive) | > 100 µM (inactive) | 13.6 µM | 24.6 µM (inactive) | 17 µM (inactive) | > 86.9 µM (inactive) | > 100 µM (inactive) | 38.5 µM (inactive) | 15 µM (inactive) | 4.23 µM (inactive) | 18.2 µM (inactive) | 60.1 µM (inactive) | 18.2 µM (inactive) | 2.96 µM (inactive) | 10.3 µM (inactive) | 28.8 µM (inactive) | 14.7 µM (inactive) | 21.5 µM (inactive)
O=C(NNC(=O)c1ccccc1O)c1ccco1 | > 100 µM (inactive) | 57.4 µM (inactive) | 45.4 µM (inactive) | 61.1 µM | > 100 µM (inactive) | 51.5 µM (inactive) | > 100 µM (inactive) | > 100 µM (inactive) | 55.7 µM (inactive) | 84.5 µM (inactive) | 31.3 µM (inactive) | > 100 µM (inactive) | > 100 µM (inactive) | > 100 µM (inactive) | > 100 µM (inactive) | 97.5 µM (inactive) | > 100 µM (inactive) | > 100 µM (inactive) | > 100 µM (inactive)
COc1cccc(C2SCC(=O)N2c2ccc(-c3ccc(-n4c(-c5ccccc5)nc5ccccc5c4=O)cc3)cc2)c1OC (stereo not drawn) | > 100 µM (inactive) | > 100 µM (inactive) | > 100 µM (inactive) | 52.7 µM | 53.5 µM (inactive) | 68.4 µM (inactive) | > 100 µM (inactive) | > 10 µM (inactive) | > 100 µM (inactive) | > 100 µM (inactive) | 67.1 µM (inactive) | > 100 µM (inactive) | 83.8 µM (inactive) | 32.6 µM (inactive) | 58.9 µM (inactive) | 59.8 µM (inactive) | > 100 µM (inactive) | 30.1 µM (inactive) | > 100 µM (inactive)
O=C(c1ccccc1Cl)n1oc2ccccc2c1=O | 86.7 µM (inactive) | > 100 µM (inactive) | > 100 µM (inactive) | 85.5 µM | > 100 µM (inactive) | 60.4 µM (inactive) | > 100 µM (inactive) | > 100 µM (inactive) | > 100 µM (inactive) | 28.1 µM (inactive) | 27.5 µM (inactive) | > 100 µM (inactive) | > 100 µM (inactive) | 37.8 µM (inactive) | > 100 µM (inactive) | 52.8 µM (inactive) | > 100 µM (inactive) | 82.4 µM (inactive) | > 100 µM (inactive)
COC(=O)c1ccccc1/C=C1/Cc2cccc(C)c2C1=O | > 100 µM (inactive) | > 100 µM (inactive) | > 100 µM (inactive) | > 100 µM | > 100 µM (inactive) | > 100 µM (inactive) | > 100 µM (inactive) | > 100 µM (inactive) | > 100 µM (inactive) | > 100 µM (inactive) | > 100 µM (inactive) | > 100 µM (inactive) | > 100 µM (inactive) | > 100 µM (inactive) | 39.7 µM (inactive) | > 100 µM (inactive) | – | 32.8 µM (inactive) | > 100 µM (inactive)

Source: ChEMBL document CHEMBL1201862, “PubChem BioAssay data set” (2004)
